“Also recorded” adds a separate entry of the source. Where two headings read alike, the source gives them in different places. Marks after values point to notes of the source that are not given here.
Experiments:
[1] = system: P. falciparum NF54 strain; assay: P. falciparum NF54 growth assay, 3H-hypoxanthine incorporation (hit validation); format: cell-based, Plasmodium falciparum; conditions: for EC50: Plasmodium falciparum; for Comment (activity in words on retest): hit validation, NF54 confirmatory assay
Experimental: Synthesized compounds were tested in an alternative assay, in which ^3H-hypoxanthine incorporation was measured in the chloroquine-sensitive strain NF54 (Values were measured in duplicate, 12 points/EC50).
Cultivation of Plasmodium falciparum: Plasmodium falciparum strain NF54 was obtained from the Research and Reference Reagent Resource Center (MR4) (Manassas, VA, USA). The two strains were maintained in vitro by a modification of the method of Trager and Jensen. Cultures were maintained in A positive (A^+) human erythrocytes suspended at 5% hematocrit in complete medium. […] Parasite growth and morphology were observed daily using thin smears at 100X (oil immersion) magnification following staining with Giemsa stain.
Plasmodium falciparum growth assay: The protocol assesses the compound efficacy against the growth of P. falciparum in vitro.
All cultures used in the study are albumax II adopted. […]
Following the incubation period, the plates were harvested with a FilterMate cell harvester (Perkin Elmer) onto unifilter-96 GF/B plates, washed with distilled water to remove excess radiochemical and plates were kept for drying 37°C overnight or 60°C for 1 hr. Fifty µL of Microscint scintillation cocktail (Microscint-High Efficiency LSC-Cocktail; Perkin Elmer) added in the unifilter-96 GF/B plates and kept for 15-20 min. The plates were counted in a Top Count NXT microplate scintillation and luminescence counter (Perkin Elmer). The mean values for [^3H]-hypoxanthine incorporation in parasitized control and non-parasitized control erythrocytes were calculated.
Assay data were analysed using Graph pad prism ver.5 software. A variable sigmoid dose response curve is plotted keeping log concentrations at X-axis and % inhibition at Y-axis.

P. falciparum 3D7 strain = assay: P. falciparum 3D7 growth inhibition, DAPI imaging (HTS screen); format: cell-based
Experimental: The P. falciparum 3D7 strain was used for the primary screen.
For the screening of the chemical library, a validated high throughput screening (HTS) method was used as reported by Duffy and Avery. In brief, intra-erythrocyte P. falciparum 3D7 parasites incubated with the compounds for 72 hours were stained with 4′-6-diamidino-2-phenylindole (DAPI) and imaged using a high throughput confocal imaging system. To ascertain inhibition of parasite growth, images of fluorescent parasites were translated, using a mathematical algorithm, into a numerical output of classified spots (parasites) as determined by fluorescence size and intensity.
EC50 and CC50 values were calculated for compounds which presented an Emax plateau using GraphPad Prism.

[2] = P. falciparum NF54 strain, 3H-hypoxanthine incorporation, newly synthesized sample, read-out: EC50 (NF54)
[3] = negative logarithm of the molar EC50, NF54, read-out: pEC50 (NF54) (converted)
[4] = Plasmodium falciparum; P. falciparum 3D7 strain, DAPI imaging, HTS screen, library sample; read-out: EC50 (3D7)
[5] = Plasmodium falciparum; negative logarithm of the molar EC50, 3D7; read-out: pEC50 (3D7) (converted)
[6] = NF54, heading bounds of Figure 8: not reconfirming / reconfirming / newly synthesized compounds, read-out: EC50 (bound in Figure 8)
[7] = 3D7 / NF54, range over HTS (3D7) and retest after synthesis (NF54), read-out: EC50 range over the two assays

Compound	EC50 [1, 2] [nM]	EC50 [1, 3] [nM]	EC50 (P. falciparum 3D7 strain; [4]) [nM]	EC50 (P. falciparum 3D7 strain; [5]) [nM]	EC50 [1, 6] [nM]	Comment (activity in words on retest) [1]	also measured
Cc1c(Cc2c(C)n(Cc3ccccc3C#N)c3ccccc23)c2ccccc2n1Cc1ccccc1C#N [Compound 2, 2,2'-((3,3'-methylenebis(2-methyl-1H-indole-3,1-diyl))bis(methylene))dibenzonitrile]	763	794	–	–	–	EC50 in the same range as initially described during the HTS	–
CC(C)(C)CC(=O)N(Cc1ccc(NC(=O)c2ccc(C#N)cc2)cc1)CC(C)(C)CN [Compound 3, N-(4-((N-(3-amino-2,2-dimethylpropyl)-3,3-dimethylbutanamido)methyl)phenyl)-4-cyanobenzamide]	3000	3160	222	200	> 1000	Weakly active	–
CC(=O)N1c2ccccc2C(c2ccccc2)C1C(=O)O (centres unmarked) [Compound 4]	–	–	172	158	> 1000	–	–
COc1ccc(NC(=O)c2cnn(-c3ccccc3)c2-c2ccccc2)c(OC)c1 [Compound 5, N-(2,4-dimethoxyphenyl)-1,5-diphenyl-1H-pyrazole-4-carboxamide]	3900	3980	870	794	> 1000	Weakly active	EC50 ([1]; P. falciparum NF54, after synthesis, read-out: EC50 (NF54)): ~4000 nM
CC(=O)N1CCN(Cc2coc(Cc3ccccc3)n2)CC1 [Compound 6, 1-(4-((2-benzyloxazol-4-yl)methyl)piperazin-1-yl)ethanone]	> 10000	> 10000	< 10	< 10	> 1000	Inactive	–
O=C(Nc1cc(=O)[nH]c2nc(-c3ccccc3)nn12)C1CCCCC1 [Compound 7, N-(5-oxo-2-phenyl-4,5-dihydro-[1,2,4]triazolo[1,5-a]pyrimidin-7-yl)cyclohexanecarboxamide]	450	501	648	631	< 1000	Validated hit, CHEMBL587310^f)	EC50 [1, 7]: 450 to 648 nM
COc1ccc(-c2cnc3sc(NC4CCC(N)CC4)nn23)cn1 (centres unmarked) [Compound 8, N1-(5-(6-methoxypyridin-3-yl)imidazo[2,1-b][1,3,4]thiadiazol-2-yl)cyclohexane-1,4-diamine]	–	–	–	–	–	–	EC50 (P. falciparum 3D7 strain; Plasmodium falciparum, 3D7, read-out: EC50 (3D7)): 297 nM; EC50 (P. falciparum 3D7 strain; Plasmodium falciparum, 3D7, read-out: pEC50 (3D7) (converted)): 316 nM; EC50 ([1]; 3D7 / NF54, read-out: EC50 range over the two assays): 284 to 287 nM; EC50 ([1]; NF54, read-out: EC50 (NF54)): 284 nM; EC50 ([1]; NF54, read-out: EC50 (bound in Figure 8)): < 1000 nM; EC50 ([1]; NF54, read-out: pEC50 (NF54) (converted)): 316 nM
CCOc1ncccc1C(=O)Nc1cc(C(F)(F)F)ccc1Oc1cccc(OC)c1 [Compound 9, 2-ethoxy-N-(2-(3-methoxyphenoxy)-5-(trifluoromethyl)phenyl)nicotinamide]	309	316	393	398	< 1000	Validated hit	EC50 [1, 7]: 309 to 393 nM
O=C(c1cccc(-c2noc(CN(CCN3CCCCC3)C(=O)c3ccccc3)n2)c1)N1CCCNCC1 [Compound 10, N-((3-(3-(1,4-diazepane-1-carbonyl)phenyl)-1,2,4-oxadiazol-5-yl)methyl)-N-(2-(piperidin-1-yl)ethyl)benzamide]	60	63.1	181	200	< 1000	Validated hit	EC50 [1, 7]: 60 to 181 nM
O=C(NCC(c1ccsc1)N1CCCCCC1)c1ccc(C(F)(F)F)cc1 (centres unmarked) [Compound 11, N-(2-(azepan-1-yl)-2-(thiophen-3-yl)ethyl)-4-(trifluoromethyl)benzamide]	518	501	433	398	< 1000	Validated hit	–
COc1ccc2c(c1)C1(Nc3ccccc3-c3nc4ccccc4n31)C(=O)N2 (centres unmarked) [Compound 12, 5'-methoxy-5H-spiro[benzo[4,5]imidazo[1,2-c]quinazoline-6,3'-indolin]-2'-one]	60	63.1	928	1000	< 1000	Validated hit, CHEMBL1545915^f)	–
Cc1csc(Sc2ncnc3sccc23)n1 [Compound 13, 4-((4-methylthiazol-2-yl)thio)thieno[2,3-d]pyrimidine]	102	100	194	200	< 1000	Validated hit	EC50 [1, 7]: 102 to 194 nM
O=C(O)C1Cc2c([nH]c3ccccc23)C(c2ccc(Cl)cc2Cl)N1 (centres unmarked) [Compound 14]	–	–	350	316	–	–	–
Cc1ccc(S(=O)(=O)N2CC(C)N(Cc3ccc(C(=O)NC4CC4)cc3)CC2C)cc1 (centres unmarked) [Compound 15, N-cyclopropyl-4-((2,5-dimethyl-4-tosylpiperazin-1-yl)methyl)benzamide]	–	–	678	–	–	–	–
CC(C)=CCN1CCC2(CC1)CN(C(=O)Nc1cccc(C#N)c1)c1ccc(C)cc12 [Compound 16]	–	–	–	–	–	–	EC50 (P. falciparum 3D7 strain; Plasmodium falciparum, 3D7; read-out: EC50 (3D7)): 990 nM; EC50 (P. falciparum 3D7 strain; Plasmodium falciparum, 3D7; read-out: Potency at HTS (3D7)): < 1000 nM; EC50 (P. falciparum 3D7 strain; Plasmodium falciparum, 3D7; read-out: pEC50 (3D7) (converted)): 1000 nM
O=C(Nc1cccc(Cl)c1)N1CC2(CCN(Cc3ccccc3)CC2)c2ccccc21 [Compound 17, 1'-benzyl-N-(3-chlorophenyl)spiro[indoline-3,4'-piperidine]-1-carboxamide]	309	316	–	–	< 1000	Hit	–

Further lines, with some results ahead:

EC50 [1, 2] [nM]	EC50 [1, 3] [nM]	EC50 (P. falciparum 3D7 strain; [4]) [nM]	EC50 (P. falciparum 3D7 strain; [5]) [nM]	EC50 [1, 6] [nM]	Compound	Comment (activity in words on retest) [1]	also measured
> 10000	> 10000	–	–	–	CC(=O)N1c2ccccc2[C@@H](c2ccccc2)[C@@H]1C(=O)O (racemic) [Compound 4a, Rac (2R,3R)-1-acetyl-3-phenylindoline-2-carboxylic acid]	did not confirm activity; also recorded: Inactive	–
> 10000	> 10000	–	–	< 1000	O=C(O)[C@@H]1Cc2c([nH]c3ccccc23)[C@H](c2ccc(Cl)cc2Cl)N1 [Compound 14a, (1S,3S)-1-(2,4-dichlorophenyl)-2,3,4,9-tetrahydro-1H-pyrido[3,4-b]indole-3-carboxylic acid]	Inactive	–
167	158	–	–	< 1000	O=C(O)[C@@H]1Cc2c([nH]c3ccccc23)[C@@H](c2ccc(Cl)cc2Cl)N1 [Compound 14b, (1R,3S)-1-(2,4-dichlorophenyl)-2,3,4,9-tetrahydro-1H-pyrido[3,4-b]indole-3-carboxylic acid]	Hit	–
4200	3980	–	–	< 1000	O=C(O)[C@H]1Cc2c([nH]c3ccccc23)[C@@H](c2ccc(Cl)cc2Cl)N1 [Compound 14c]	weak activity; also recorded: Weakly active	–
> 10000	> 10000	–	–	< 1000	O=C(O)[C@H]1Cc2c([nH]c3ccccc23)[C@H](c2ccc(Cl)cc2Cl)N1 [Compound 14d]	Inactive	–
44	39.8	–	–	< 1000	Cc1ccc(S(=O)(=O)N2C[C@H](C)N(Cc3ccc(C(=O)NC4CC4)cc3)C[C@@H]2C)cc1 [Compound 15a]	Hit	Difference in activity between the two enantiomers ([1]; 15a versus 15b, NF54 EC50): more than 15 fold
679	631	–	–	< 1000	Cc1ccc(S(=O)(=O)N2C[C@@H](C)N(Cc3ccc(C(=O)NC4CC4)cc3)C[C@H]2C)cc1 [Compound 15b]	Hit	–
535	501	–	–	< 1000	Cc1ccc(S(=O)(=O)N2CCN(Cc3ccc(C(=O)NC4CC4)cc3)CC2)cc1 [Compound 15c, N-cyclopropyl-4-((4-tosylpiperazin-1-yl)methyl)benzamide]	Hit	–

Reference: paper PMC4094919, “Screening and hit evaluation of a chemical library against blood-stage Plasmodium falciparum” (Malaria Journal, 2014)
